Results published in patent US10487054B2, “Therapeutic compounds” (REGENTS OF THE UNIVERSITY OF MINNESOTA, priority 2017, dated 2019).

Assays:
[1] = target: T1, active TOPK (Homo sapiens, UniProt Q96KB5); experiment: ATP competition pull-down assay with compound 1-conjugated Sepharose 4B beads; type: binding; conditions: ATP 0, 10 or 100 μM; active TOPK 200 ng
T1 construct: purchased SignalChem (Richmond, BC, Canada)
T1 sequence (Q96KB5 1-322): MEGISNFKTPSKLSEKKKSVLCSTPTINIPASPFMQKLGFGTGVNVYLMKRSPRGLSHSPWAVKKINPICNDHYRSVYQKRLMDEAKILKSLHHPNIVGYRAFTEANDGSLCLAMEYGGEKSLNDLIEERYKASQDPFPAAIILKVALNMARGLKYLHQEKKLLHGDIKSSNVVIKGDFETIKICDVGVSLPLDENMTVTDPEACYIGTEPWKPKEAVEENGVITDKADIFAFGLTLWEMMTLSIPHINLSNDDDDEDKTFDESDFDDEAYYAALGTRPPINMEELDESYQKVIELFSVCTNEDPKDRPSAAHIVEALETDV
Description: Active TOPK (200 ng) was incubated with different concentrations of ATP (0, 10 or 100 μM) and then mixed with compound 1-conjugated Sepharose 4B beads or Sepharose 4B beads. Proteins were pulled down and analyzed by Western blot. Data are representative of 3 independent experiments that gave similar results. FIGS. 2C and 2D show compound 1 binds to either TOPK (2C) or MEK1/2 (2D) ex vivo. Lysates from HaCaT cells (500 μg) were incubated with compound 1-conjugated Sepharose 4B beads or Sepharose 4B beads alone and the pulled-down proteins were analyzed by Western blot. Data are representative of 3 independent experiments that gave similar results. FIGS. 2E and 2F show compound 1 inhibits TOPK kinase (2E) activity but not MEK1 kinase (2F) activity in vitro. Active TOPK (200 ng) was mixed with compound 1 (0, 0.5, 1, 3, or 5 μM) or HI-032 (TOPK inhibitor, 10 μM) and then incubated with a [γ-^32P] ATP mixture. Similarly, MEK1 (200 ng) was mixed with compound 1 (0, 0.5, 1, 3, 5, or 10 μM) or PD098059 (MEK1 inhibitor, 5 μM) and then incubated with a [γ-^32P] ATP mixture. For 2E and 2F, the results are visualized by autoradiography and Coomassie blue staining serves as a loading control. Data are representative of 3 independent experiments that gave similar results. […]

[2] = test system: AP-1 activity in JB6 P+ cells; experiment: AP-1 luciferase reporter assay, SUV-induced; type: cell-based, mouse; conditions: JB6 P+ cells, 1.25, 2.5 or 5 μM, dose-dependently
Description: The cells were cultured, treated for 4 h with different concentrations of compound 1 and then exposed to SUV (60 kJ UVA/m^2 and 2.9 kJ UVB/m^2), followed by an additional 15-minute incubation. Cells were harvested and the levels of phosphorylated and total proteins were determined by Western blot analysis with specific antibodies as indicated. […] The cells were cultured and treated with different concentrations of compound 1 for 24 h. Cells were harvested and the levels of phosphorylated and total proteins were determined by Western blot analysis with specific antibodies as indicated. […] For the luciferase assay, JB6 P+ cells stably transfected with an AP-1 luciferase reporter plasmid were cultured. After starvation for 24 h, cells were treated for 1 h with compound 1 (0, 1.25, 2.5, or 5 μM). Cells were then exposed to SUV (60 kJ UVA/m^2 and 2.9 kJ UVB/m^2) and harvested 3 h later. Luciferase activity was measured and AP-1 activity is expressed relative to control cells without SUV treatment. […] Knockdown of TOPK in A431 cell line (left). […] Luciferase and 3-galactosidase activities were measured using reagents included in the reporter assay system (right). […] Significant differences were evaluated using one-way ANOVA and the asterisks (*) indicate a significant effect (*, p<0.05; **, p<0.001; ***, p<0.0001). […]

## O=C1Nc2ccc(C34CC5CC(CC(C5)C3)C4)cc2C1=NO [compound 1, 5-(adamantan-1-yl)-3-(hydroxyimino)indolin-2-one]
[1]
  binding ability with TOPK in presence of ATP: altered in the presence of ATP
[2]
  SUV-induced transactivation of AP-1: inhibited
